| melting point | SMILES |
| --- | --- |
| 87 to 89 °C | CCOC(=O)c1cccn2c(C#N)c(-c3ccccc3)nc12 |
| 127 °C | CCCCc1oc2ccccc2c1-c1ncc(-c2ccc3cc(OCC#N)ccc3c2)o1 |
| 122 to 124 °C | O[C@@H](c1n[nH]cc1-c1ccccc1)[C@H](CCN1CCC(O)(c2ccccc2)CC1)c1ccc(Cl)c(Cl)c1 (racemic) |
| 207 °C | CCCc1nc(C(O)C(C)(C)C)c(C(=O)O)n1Cc1ccc(-c2ccccc2C(=O)OC(C)(C)C)cc1 (stereo unspecified) |
| 168 to 169 °C | COc1ccc(CNc2n[nH]c3ncnc(Nc4cccc(Cl)c4)c23)c(OC)c1OC |
| 170 to 171 °C | Cc1nn(Cc2ccc(OCc3nc(-c4ccccc4)oc3C)cc2)c(C)c1CCC(=O)O |
| 190 °C | Cc1ccc(Nn2c(-c3ccccc3)c(C)[nH]c2=S)cc1Cl |
| 55 to 56 °C | COC(=O)C1CC1c1ccc(OCc2cccc(Oc3ccccc3)c2)cc1 (stereo unspecified) |
| 157 to 160 °C | C=CCn1c(NCCOc2ccccc2)nc(N2CCc3ccccc3CC2)c(C#N)c1=O |
| 222 to 224 °C | COC(=O)c1c(-c2ccc(C)cc2)ccnc1O |
| 139 to 141 °C | COc1cc(=O)c(-c2ccnn2-c2ccccc2)nn1-c1cccc(C(F)(F)F)c1 |
| 176 °C | O=C(NCc1ccc2c(c1)OCO2)c1ccc2[nH]c(=O)n(Cc3ccccc3)c(=O)c2c1 |
| 250 to 251 °C | O=C(Nc1c[nH]nc1C(=O)NCCc1c[nH]c2ccccc12)c1ccccn1 |
| 82 °C | COC(=O)CC[C@H](NC(=O)c1ccc(NCC(=O)OCc2ccccc2)cc1)C(=O)OC |
| 224 to 226 °C | CC(C)Oc1ccc(-c2nn(C(C)c3oc4ccccc4c(=O)c3-c3cccc(F)c3)c3ncnc(N)c23)cc1 (stereo unspecified) |
| > 250 °C | O=C1Cn2nc(-c3ccc(F)cc3)c(-c3ccncc3)c2N1 |
| 150 to 151 °C | CCN(C(=O)C(C)n1c(=O)n(C)c2nc(-c3ccccc3)ncc21)c1ccccc1 (stereo unspecified) |
| 94 to 96 °C | OCC(O)COCCCCCCCCOc1ccc(-c2ccccc2)cc1 (stereo unspecified) |
| 230 to 231 °C | O=C(O)C1CNC(C(=O)O)c2[nH]c3ccccc3c21 (stereo unspecified) |
| 48 to 49 °C | O=P(CCc1ccccc1)(OCc1ccccc1)OCc1ccccc1 |

| melting point | SMILES |
| --- | --- |
| 197 to 198 °C | Nc1nc(Cl)c2cnn(Cc3ccccc3F)c2n1 |
| 124 to 126 °C | c1ccc(-c2cc3ccccc3s2)nc1 |
| 143 to 144 °C | CCOc1ccccc1-c1oc2c(C(=O)OCCO)cccc2c(=O)c1C |
| 191 to 193 °C | S=c1[nH]c2cccc(OCCNCc3cccc4ccccc34)c2[nH]1 |
| 74 to 74.5 °C | O=C(O)COCC(=O)NCCCCCCCNC(=O)OCc1ccccc1 |
| 108 to 112 °C | O=C(O)Cc1ccc(OCCNC(=O)C2Cc3ccccc3N2S(=O)(=O)c2ccc(-c3cc(C(F)(F)F)ccc3Cl)cc2)c(Cl)c1 (stereo unspecified) |
| 234 °C | C=CCc1c(-c2cc(=O)c3c(O)cc(OCc4ccccc4)cc3o2)ccc(OC)c1O |
| 98 to 100 °C | O=C(O)COc1ccc(SCc2ccc(OCc3cc(Cl)ccc3Cl)cc2)c2c1CCCO2 |
| 251 to 254 °C | CCCNc1cccc(-c2ccc(C(=O)O)c(=O)[nH]2)c1 |
| 115 °C | O=c1oc(=Cc2ccccc2)c(=Cc2ccccc2)o1 |
| 157 to 158 °C | CC(NC(=O)OC(C)(C)C)c1ccc(NS(C)(=O)=O)c(C#Cc2ccccc2)c1 (stereo unspecified) |
| 118 to 119 °C | CCOC(=O)Nc1ccccc1NS(=O)(=O)c1ccc(OC)cc1 |
| 157 to 158 °C | c1cc(-c2nccs2)cc(-n2cnc3cc(-c4ccon4)ccc32)c1 |
| 144 to 145 °C | O=C(O)COc1ccccc1C(=O)NCc1ccc(Br)cc1F |
| 222 °C | CC1=Nc2c3cc(-c4ccccc4)nc-3ccn2C1 |
| 200 to 202 °C | N#Cc1ccccc1CSc1nc2cnccc2[nH]1 |
| 156 to 158 °C | CC(C)(C)NC(=O)N(Cc1ccccc1)CC(O)C(Cc1ccccc1)NC(=O)C(CC(N)=O)NC(=O)NCc1ccccc1 (stereo unspecified) |
| 238 to 239 °C | COc1ccc(-c2cnn(-c3cccc(C(=O)O)c3)c2)cc1 |
| 258 to 260 °C | N#CC(C(=O)Nc1ccccn1)C(=O)c1nn(-c2ccccc2)c2c1CSc1ccccc1-2 (stereo unspecified) |

Continued, compound first:

| SMILES | melting point |
| --- | --- |
| FC(F)Sc1nnc(-c2cccs2)s1 | 63 to 64 °C |
| O=C(Nc1cc(C(F)(F)F)ccc1N1CCCC1)c1ccncc1 | 134 to 135 °C |
| COC(=O)C1CCCn2c(=O)[nH]c(=O)n21 (stereo unspecified) | 215 to 216 °C |
| Cc1csc(N=CN(C)C)n1 | 54 to 56 °C |
| CCCc1c(C(C)C)nc(C(C)C)c(C(C)O)c1-c1ccc(F)cc1 (stereo unspecified) | 103 to 104 °C |
| CC(C)(C)OC(=O)NC1CCCC1CO (stereo unspecified) | 107 to 108 °C |
| N#Cc1ccc(CN2C(=O)C3(COc4cc5c(cc43)OCO5)c3ccccc32)o1 (stereo unspecified) | 167 to 169 °C |
| OC(c1cccnn1)c1ccc(Cl)cc1Cl (stereo unspecified) | 130 to 132 °C |
| C[C@]12CC(=C(F)F)[C@H]3[C@@H](CCC4=CC(=O)CC[C@@H]43)[C@@H]1CCC2=O | 158 to 164 °C |
| CC1Cc2c(N3CCN(CC(F)(F)F)CC3)c(F)cc3c(=O)c(C(=O)O)cn1c23 (stereo unspecified) | 287 to 289 °C |
| O=[N+]([O-])c1cc(N=Nc2ccc(S(=O)(=O)F)cc2)cc(Cl)c1O | 129 to 133 °C |
| Cc1ccc(S(=O)(=O)NCc2nc(C(C)C)c(Sc3cc(Cl)cc(Cl)c3)n2C)cc1 | 85 to 87 °C |
| Nc1ncc2cc(-c3c(Cl)cccc3Cl)c(=O)n(Cc3cccc(Br)c3)c2n1 | 215 °C |
| Clc1ccc2c(Cl)nc(-c3ccc(Br)cc3)nc2c1 | 189 to 190 °C |
| CCCCC1(CCCC)CCc2c(O)cccc2C1O (stereo unspecified) | 82 to 83 °C |
| Cn1c2cc(Cl)ccc2c2oc(C(=O)Cl)cc21 | 154 to 156 °C |
| Clc1ccc(Cc2cccc(-c3ncc4c(n3)CCCC4)n2)cn1 | 115 to 120 °C |
| CC(C(=O)NC(C)(C)C)c1cc(Cl)ccc1C(=O)O (stereo unspecified) | 175 to 178 °C |
| COC(=O)COc1cccc(CCN(C)CCCC(C#N)(c2ccc(OC)c(OC)c2)C(C)C)c1 (stereo unspecified) | 96 to 100 °C |
| CN(C)c1ccc2ccc(=O)oc2c1 | 161 °C |
| O=C(O)[C@@H]1CC2(CN1C(=O)CP(=O)(O)CCCCc1ccccc1)SCCS2 | 106 to 107 °C |

| SMILES | melting point |
| --- | --- |
| CCCc1c2c(c(N)c3c(=O)cc(C(=O)OCC)oc13)CC(C(=O)OCC)CC2 (stereo unspecified) | 102 to 103 °C |
| CC1(C)CCC(C)(C)c2cc(C(O)C3CCCCC3C(=O)O)ccc21 (stereo unspecified) | 186 °C |
| NC(=O)c1cn(-c2ccc(Cl)c(Cl)c2)cn1 | 244 to 245 °C |
| Fc1ccc(-c2cc(N3CCN(CC4CC4)CC3)nc3c2CCCCCC3)cc1 | 109 to 110 °C |
| N#C/C=C/c1ccc(Cl)cc1Cl | 156 °C |
| C[C@@H](n1cnc2cc(OCC(F)F)ccc2c1=O)[C@](O)(Cn1cncn1)c1ccc(F)cc1F | 96 to 102 °C |
| COc1ccc(Cn2c(C(C)C)c(C(=O)c3cccnc3)c3ccccc32)cc1 | 190 °C |
| CCOC(=O)C1CCc2ccc(OC)cc2C1 (stereo unspecified) | 125 to 127 °C |
| Cc1cccc(-c2nc(N)sc2-c2ccnc(-c3ccc(CN4CCOCC4)cc3)c2)n1 | 190 to 192 °C |
| CCCCCCCCCCCCCCCc1ccc2c(c1)C1(O)C(=O)c3ccccc3C1(O)O2 (stereo unspecified) | 105 to 110 °C |
| CN(C)CCc1nnc2n1-c1ccc(Cl)cc1C(c1ccccc1)NC2 (stereo unspecified) | 131 to 137 °C |
| CC1(CNC(=O)CC2CN=C(c3cc4cc(Oc5ccc(S(C)(=O)=O)nc5)cc(OC5CCOCC5)c4[nH]3)S2)COC1 (stereo unspecified) | 189 to 190 °C |
| COc1nc(C)nc(NC(=O)NS(=O)(=O)c2ccccc2CCC(F)(F)F)n1 | 157 to 158 °C |
| CN1CCC(C2c3sccc3CCn3ccnc32)CC1 (stereo unspecified) | 121 °C |
| O=c1[nH]c2ccc(S(=O)CCCl)cc2o1 (stereo unspecified) | 150 to 155 °C |
| C[C@H]1CCCC(C)(C)[C@@H]1C(=O)O | 44 to 54 °C |
| Cn1c(CNCC2CCOC2)cc2cc(NC(=O)c3ccc(OCC4CCOC4)cc3)ccc21 (stereo unspecified) | 131 to 133 °C |
| COc1ccc(N2CCN(c3ccc(N)cn3)CC2)cc1 | 134 to 135 °C |
| CNc1cc(Oc2ccc3c(c2)OCCN3)ncn1 | 153 °C |
| COc1ccc(-n2nc(C)c(CC(=O)O)c2C)cc1 | 154 to 155 °C |
| COC(=O)c1ccc(OCC(N)=O)c([N+](=O)[O-])c1 | 185 to 187 °C |

| SMILES | melting point |
| --- | --- |
| COc1cc(C(=O)O)c(-c2c(C(=O)O)cc(OC)c3c2OCO3)c(OC)c1OC | 258 to 259 °C |
| O=C1N=c2ccccc2=C1C1CCNCC1 | 156 °C |
| COc1c(C)cc(C)c(C2CC(=O)C=C(O)C2)c1C (stereo unspecified) | 165 to 166 °C |
| FC(F)(F)C(/C=C/c1ccc(-n2cncn2)cc1)c1cc(Cl)cc(Cl)c1 (stereo unspecified) | 93 to 97 °C |
| Cc1ccc(-c2ccc3cc(C(=O)Nc4ccc(CN(C)C5CCOCC5)cc4)n(C)c3c2)cc1 | 225 to 226 °C |
| CN(C)C(=O)CC1CN=C(c2cc3cccc(N(C)S(=O)(=O)c4cccs4)c3[nH]2)S1 (stereo unspecified) | 153 to 154 °C |
| N=C(NO)c1ccc(Cl)nc1 | 185 to 186 °C |
| COc1cc(C(=O)O)ccc1S(=O)(=O)n1c(=O)n(C2CCCCC2)c2cc(OC3CCCC3)ccc21 | 245 °C |
| CC(Oc1ccc(Cl)nc1Cl)C(=O)O (stereo unspecified) | 128 to 131 °C |
| Cc1cc(C)c(C=O)c(-c2ccc(Cl)c(Cl)c2)c1 | 80 to 81 °C |
| COC(=O)c1ccc2c(-c3cccc(OC)c3)nc(=O)n(C(C)C)c2c1 | 164 to 167 °C |
| O=C(NCCCN1CCN(Cc2ccc(Cl)cc2)CC1)NC1CCCCC1 | 109 to 112 °C |
| CC1(C)CC(=C(c2ccc(O)cc2)c2ccc(-c3cccc(CO)c3)cc2)CC(C)(C)C1 | 197 to 198 °C |
| CC(=O)Nc1ccc(Oc2ccc(S(C)(=O)=O)cc2C)cc1 | 169 °C |
| Nc1cccc(C(=O)O)c1S(=O)(=O)CCO | 75 to 77 °C |
| CN(C)C(=O)c1cnn(-c2ccc(Br)cc2)c1C#N | 131 to 133 °C |
| COC(=O)c1ccc(NC(=O)c2cc(C(C)C)c(C(C)C)s2)cc1F | 146 to 147 °C |
| CC1(C)c2cc(C#N)ccc2OC1OC(=O)CCl (stereo unspecified) | 138 °C |
| Cc1cc(C(C)(C)C)c(O[Si](C)(C)Cl)c(C(C)(C)C)c1 | 119 to 121 °C |
| O=Cc1cccn2c(Br)cnc12 | 104 to 106 °C |

— a melting point compilation (Tetko et al.; mined from patent text by program, amines drawn as free bases though some values may be those of a salt)
